This passage reports Ki results from US20080221134A1, “8-ALKYNYLXANTHINES AND DERIVATIVES” (priority 2006, published 2008).

SMILES strings stand for the structures.

The target in test [1] is T1, A1-adenosine receptor human recombinant (Homo sapiens, UniProt P30542).
T1 construct: expressed in transfected cells
T1 sequence (P30542 1-326): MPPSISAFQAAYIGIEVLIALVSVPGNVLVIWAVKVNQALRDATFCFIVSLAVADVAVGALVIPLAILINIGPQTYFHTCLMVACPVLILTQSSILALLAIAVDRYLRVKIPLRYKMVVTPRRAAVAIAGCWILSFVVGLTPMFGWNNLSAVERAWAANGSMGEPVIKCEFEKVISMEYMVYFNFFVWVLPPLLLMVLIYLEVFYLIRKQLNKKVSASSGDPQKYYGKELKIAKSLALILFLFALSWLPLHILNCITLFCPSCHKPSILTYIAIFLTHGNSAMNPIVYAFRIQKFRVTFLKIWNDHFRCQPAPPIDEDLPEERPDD
Nature of the test: Radioligand binding assay 1, human recombinant A1 adenosine receptor. The settings on record: [3H]CCPA. Here is the method:
(§1) Rat brain preparations were used for A1- and A2A adenosine receptor (AR) and human recombinant cell samples for A1-, A2A- and A3 adenosine receptor radioligand binding studies. Affinity and selectivity was tested in displacement experiments with following radioligands: [^3H]CCPA for A1-adenosine receptors, [^3H]MSX-2 for A2A-receptors and [^3H]PSB-11 for A3-receptors. Results of these experiments are depicted in table 2b (human data) and table 2a (rat data). Radioligand binding test systems are e.g. generally described by Muller et al., Curr. Pharm. Des., 1996, 2, 501 and Weyler et al., ChemMedChem 2006, 1, 891 and references cited therein) These documents are incorporated herein by reference.

Test [2] deals with T2, A2A-adenosine receptor human recombinant (Homo sapiens, UniProt P29274).
T2 construct: expressed in transfected cells
Briefly: Radioligand binding assay 1, human recombinant A2A adenosine receptor. The note with it: human recombinant, [3H]MSX-2; read-out: A2A-adenosine receptor human recombinant [3H] MSX-2 Ki. As to the method: as §1

T2 sequence (P29274 whole entry): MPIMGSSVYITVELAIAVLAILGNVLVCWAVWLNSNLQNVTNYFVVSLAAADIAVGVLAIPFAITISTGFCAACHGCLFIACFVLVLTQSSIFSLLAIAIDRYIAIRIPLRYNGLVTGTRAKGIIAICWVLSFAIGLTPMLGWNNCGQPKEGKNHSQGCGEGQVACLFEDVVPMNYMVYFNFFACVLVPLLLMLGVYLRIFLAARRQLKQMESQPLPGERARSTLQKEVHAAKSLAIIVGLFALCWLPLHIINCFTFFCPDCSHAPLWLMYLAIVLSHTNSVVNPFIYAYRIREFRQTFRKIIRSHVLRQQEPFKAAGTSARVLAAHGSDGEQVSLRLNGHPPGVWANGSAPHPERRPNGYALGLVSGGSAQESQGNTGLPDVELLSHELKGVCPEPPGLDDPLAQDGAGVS

Take `C#CCn1c(=O)c2c(nc(C#Cc3ccc(Cl)c(Cl)c3)n2C)n(CC)c1=O` [drawing 597]: the Ki is above 1000 nM in test [1] and 738 ± 146 nM in test [2].

Take `C#CCn1c(=O)c2c(nc(C#Cc3ccc(OC)c(OC)c3)n2C)n(CCN(C)C)c1=O` [drawing 568]: the results for the Ki in test [1] and in test [2] were above 20000 nM and 51.7 ± 8.7 nM, respectively.

Take `C#CCn1c(=O)c2c(nc(C#Cc3ccc(OC)c(OC)c3)n2C)n(Cc2ccoc2)c1=O` [drawing 583]: the Ki in test [1] is above 1000 nM; in test [2], 8.4 ± 6.7 nM.

With `C#CCn1c(=O)c2c(nc(C#Cc3ccc(F)c(OC)c3)n2C)n(CC)c1=O` [drawing 588], the Ki is above 1000 nM in test [1] and 100 ± 28 nM in test [2].

Consider `C#CCn1c(=O)c2c(nc(C#Cc3cccc(C)c3)n2C)n(CC)c1=O` [drawing 566], for which the Ki in test [1] is above 3000 nM; in test [2], 89.7 ± 16.1 nM.

Regarding `C#CCn1c(=O)c2c(nc(C#Cc3ccc(OC)c(OC)c3)n2C)n(CCO)c1=O` [drawing 575], the Ki was above 1000 nM in test [1] and 59.8 ± 35.7 nM in test [2].

For `C#CCn1c(=O)c2c(nc(C#Cc3ccc(OC)c(OC)c3)n2C)n(C)c1=O` [drawing 554], the Ki in test [1] is above 3000 nM; in test [2], 36.4 ± 0.6 nM.

For `C#CCn1c(=O)c2c(nc(C#Cc3cccc(OC)c3)n2C)n(CC(O)CO)c1=O` (stereo not drawn) [drawing 569], the Ki in test [1] was above 3000 nM; in test [2], 175 ± 44 nM.

With `C#CCn1c(=O)c2c(nc(C#Cc3cccc(C)c3)n2C)n(C)c1=O` [drawing 555], the Ki is above 10000 nM in test [1] and 225 ± 52 nM in test [2].

`C#CCn1c(=O)c2c(nc(C#Cc3ccc(OC)c(OC)c3)n2C)n(Cc2cnc[nH]2)c1=O` [drawing 593]: the Ki in test [1] is above 1000 nM; in test [2], 103 nM.

Regarding `C#CCn1c(=O)c2c(nc(C#Cc3ccc(OC)c(OC)c3)n2C)n(CCCC#N)c1=O` [drawing 582], the Ki in test [1] is above 1000 nM; in test [2] it was 58 ± 13.3 nM.

Regarding `C#CCn1c(=O)c2c(nc(C#Cc3cccc(OCCO)c3)n2C)n(C)c1=O` [drawing 557], the Ki in test [1] is above 1000 nM; in test [2], 226 ± 62 nM.

Take `C#CCn1c(=O)c2c(nc(C#Cc3ccc(OC)c(OC)c3)n2C)n(CCC)c1=O` [drawing 584]: the Ki in test [1] is above 1000 nM; in test [2], 36.6 ± 8.7 nM.

`C#CCn1c(=O)c2c(nc(C#Cc3cccc(OCCCN(C)C)c3)n2C)n(C)c1=O` [drawing 558]: the Ki in test [1] was 1740 ± 546 nM; in test [2], 11.6 ± 2.1 nM.

In the case of `C#CCn1c(=O)c2c(nc(C#Cc3ccc(OC)c(OC)c3)n2C)n(CC2CC2)c1=O` [drawing 590], the Ki is above 1000 nM in test [1] and 56.3 ± 26.4 nM in test [2].

For the compound `C#CCn1c(=O)c2c(nc(C#Cc3ccc(OCC)c(OCC)c3)n2C)n(CC)c1=O` [drawing 573], the Ki was above 1000 nM in test [1] and 83.4 ± 26.5 nM in test [2].

Consider `C#CCn1c(=O)c2c(nc(C#Cc3cccc(OC)c3)n2C)n(CC)c1=O` [drawing 565], for which the Ki in test [1] is above 3000 nM; in test [2], 64.8 ± 12 nM.

As to `C#CCn1c(=O)c2c(nc(C#Cc3ccc(OC)c(OC)c3)n2C)n(CC)c1=O` [drawing 567], the figures for the Ki in test [1] and in test [2] were above 1000 nM and 17.7 ± 0.7 nM, respectively.

With `C#CCn1c(=O)c2c(nc(C#Cc3cccc(OCc4ccoc4)c3)n2C)n(C)c1=O` [drawing 562], the Ki in test [1] is above 1000 nM; in test [2], below 10 nM.

As for `C#CCn1c(=O)c2c(nc(C#Cc3ccc(OC)c(OC)c3)n2C)n(CCOC)c1=O` [drawing 574], the Ki was above 1000 nM in test [1] and 55.3 ± 4.3 nM in test [2].

For the compound `C#CCn1c(=O)c2c(nc(C#Cc3ccc(OC)c(OC)c3)n2C)n(CC(C)O)c1=O` (stereo not drawn) [drawing 578], the values for the Ki in test [1] and in test [2] were above 1000 nM and 14 ± 4.1 nM, respectively.

`C#CCn1c(=O)c2c(nc(C#Cc3ccc(OC)c(OC)c3)n2C)n(CCC#N)c1=O` [drawing 577]: the Ki in test [1] is above 1000 nM; in test [2] it was 84.3 ± 31 nM.

With `C#CCn1c(=O)c2c(nc(C#Cc3ccc(OC)c(OC)c3)n2C)n(CC(=O)OC)c1=O` [drawing 598], the figures for the Ki in test [1] and in test [2] were above 1000 nM and 38.2 ± 8.5 nM, respectively.

In the case of `C#CCn1c(=O)c2c(nc(C#Cc3ccc(OC)c(OC)c3)n2C)n(Cc2ccco2)c1=O` [drawing 579], the Ki in test [1] is above 1000 nM; in test [2] it was 13.9 ± 0.8 nM.

Regarding `C#CCn1c(=O)c2c(nc(C#Cc3ccc(OC)c(OC)c3)n2C)n(CC(C)C)c1=O` [drawing 585], the Ki is at least 1000 nM in test [1] and 200 ± 99 nM in test [2].

Consider `C#CCn1c(=O)c2c(nc(C#Cc3ccc(OC)c(OC)c3)n2C)n(CC#N)c1=O` [drawing 576], for which the Ki in test [1] is above 1000 nM; in test [2], 32.2 ± 20.5 nM.

Turning to `C#CCn1c(=O)c2c(nc(C#Cc3cccc(OC)c3)n2C)n(C)c1=O` [drawing 553], the Ki in test [1] is above 10000 nM; in test [2] it was 608 ± 111 nM.

`C#CCn1c(=O)c2c(nc(C#Cc3cccc(OCCN(C)C)c3)n2C)n(C)c1=O` [drawing 560]: the Ki is above 1000 nM in test [1] and 90.3 ± 13.7 nM in test [2].

In the case of `C#CCn1c(=O)c2c(nc(C#Cc3cccc(OC)c3)n2C)n(CCCO)c1=O` [drawing 564], the Ki in test [1] is above 3000 nM; in test [2], 5.5 ± 1.4 nM.

As to `C#CCn1c(=O)c2c(nc(C#Cc3ccc(OC)c(OC)c3)n2C)n(CCF)c1=O` [drawing 587], the Ki in test [1] was above 1000 nM; in test [2], 30.8 ± 4.9 nM.

Turning to `C#CCn1c(=O)c2c(nc(C#Cc3ccc(OC)c(OC)c3)n2C)n(C(C)C)c1=O` [drawing 586], the Ki in test [1] was above 1000 nM; in test [2], 127 ± 19 nM.

Take `C#CCn1c(=O)c2c(nc(C#Cc3ccc(OC)c(OC)c3)n2C)n(CC(O)CO)c1=O` (stereo not drawn) [drawing 595]: the Ki in test [1] is above 1000 nM; in test [2], 62.7 ± 10.7 nM.

Take `C#CCn1c(=O)c2c(nc(C#Cc3ccc(OC)c(OC)c3)n2C)n(Cc2cccs2)c1=O` [drawing 589]: the Ki in test [1] is above 1000 nM; in test [2], 416 ± 44 nM.

As for `C#CCn1c(=O)[nH]c2nc(C#Cc3ccc(OC)c(OC)c3)n(C)c2c1=O` [drawing 563], the figures for the Ki in test [1] and in test [2] were above 1000 nM and 18.4 ± 3 nM, respectively.

On to `C#CCn1c(=O)c2c(nc(C#Cc3ccc(OC)c(OC)c3)n2C)n(CCCOC)c1=O` [drawing 581], for which the Ki in test [1] is above 1000 nM; in test [2], 123 ± 62 nM.

For `C#CCn1c(=O)c2c(nc(C#Cc3cccc(OCCOC)c3)n2C)n(C)c1=O` [drawing 559], the results for the Ki in test [1] and in test [2] were above 1000 nM and 28.9 ± 1.3 nM, respectively.

In the case of `C#CCn1c(=O)c2c(nc(C#Cc3ccc(OC)c(OC)c3)n2C)n(CCCOP(=O)(O)O)c1=O` [drawing 570], the Ki in test [2] was 50.7 ± 21.2 nM.

As to `C#CCn1c(=O)c2c(nc(C#Cc3cccc(Cl)c3)n2C)n(C)c1=O` [drawing 556], the Ki was above 10000 nM in test [1] and 423 ± 28 nM in test [2].

Usually Ki stands for a dissociation constant, usually derived from enzyme kinetics or from competition with a known ligand.
